{"source": "patent US20240166765A1", "about": "“INFLAMMATORY DISEASE TREATMENT USING ANTI-TISSUE FACTOR ANTIBODIES” (Iconic Therapeutics LLC, priority 2020, published 2024)", "key": {"[1]": {"test_system": "thrombin generation (relipidated TF in normal pooled plasma)", "test": "Thrombin generation assay (TGA) without antibody pre-incubation", "format": "biochemical, human", "settings": "Table 44", "protocol": "(§1) The TGA assay was performed using the calibrated-automated-thrombogram (CAT) instrument manufactured and distributed by STAGO. The test method design was equivalent to a standard CAT assay measurement, except that the plasma source was NPP in citrate/CTI. […] Relipidated TF was added to a 96-well assay plate, followed by addition of the antibody/NPP mixture. After a 10-min incubation or directly after combining the relipidated TF with antibody/NPP, thrombin generation was initiated by the addition of calcium and the thrombin substrate. The STAGO software was used to report the following parameters: Peak IIa (highest thrombin concentration generated [nM]); Lag Time (time to IIa generation [min]); ETP (endogenous thrombin potential, area under the curve [nM×min]); and ttPeak (time to Peak IIa [min]).\nas §1, with “was normal pooled plasma (NPP)” for “was NPP”, “in citrate supplemented with corn trypsin inhibitor (citrate/CTI).” for “in citrate/CTI.”\n(§2) TGA assay was performed using the calibrated-automated-thrombogram (CAT) instrument manufactured and distributed by STAGO (Diagnostica Stago SAS, Asnieres sur Seine, France). […] The anti-TF antibodies were titrated at 0, 10, 50 and 100 nM and mixed with NPP in citrate/CTI. Relipidated TF was added to a 96-well assay plate, followed by addition of the antibody/NPP mixture. After a 10-min incubation or directly after combining the relipidated TF with antibody/NPP, thrombin generation was initiated by the addition of calcium and the thrombin substrate. The STAGO software was used to report the following parameters: Peak IIa (highest thrombin concentration generated on the thrombin generation curve [nM]); Lag Time (time from assay start to the moment 10 nM of thrombin is formed [min]); ETP (endogenous thrombin potential, area under the curve [nM×min]); and ttPeak (time from assay start to Peak IIa [min]). […] As used herein, the term “thrombin generation assay” (TGA) refers to the TGA used in this example."}, "[2]": {"test_system": "chimeric human-rat TF constructs expressed on HEK293 cells", "test": "Epitope binning, chimeric TF construct mapping (live cell staining assay)", "format": "binding", "protocol": "To establish binding of the anti-human TF antibodies to the various TF constructs, HEK293 cells were transfected with a DNA plasmid that co-expresses the TF construct and a green fluorescent protein marker. For a subset of the antibodies, an antibody titration (a 12-point 1:3 dilution series starting at 250 nM) was evaluated on select TF constructs (See international PCT application PCT/US2019/012427 and U.S. utility application Ser. No. 16/959,652, incorporated herein by reference in their entirety). […] Two days after transfection, cells were collected from the tissue culture plate, stained with 15 μg/ml of the indicated anti-TF antibody, washed, stained with anti-human IgG-Fc Alexa Fluor 647 polyclonal antibody, washed, and stained with the viability dye 4′,6-Diamidino-2-Phenylindole, Dihydrochloride. Upon acquisition of 80,000 live events on a flow cytometer, live cells marked with the fluorescent marker were analyzed for the degree of staining by the anti-TF antibody. […] As used herein, the term “live cell staining assay” refers to the antibody binding assay used in this example.\nWhen “Percentage antibody binding to TF construct relative to hTF” in Tables 51 and 52 was less than 50%, the antibody was considered a non-binder (0) in Tables 53 and 54."}, "HUVECs": {"test_system": "HUVECs", "test": "G2/M arrest (phospho-Histone H3) in HUVECs", "format": "cell-based, human", "settings": "HCT-116 cells and HUVECs", "protocol": "To further understand the resistance of endothelial cells to anti-TF ADCs, cell cycle progression was evaluated 24 h after addition of the cytokines and TF-specific ADCs. Arrest at the G2/M phase of the cell cycle was analyzed as previously described in Theunissen et al, Methods Enzymol, 2006, 409:251-284. Briefly, low-passage HUVECs (Lifeline Cell Technologies, Frederick, MD, USA), propagated in VascuLife VEGF-Mv Endothelial media (Lifeline Cell Technologies), and HCT-116 cells were seeded on 12-well plates. The next day, media was removed and replaced with fresh media (no cytokines) or media containing 5 […] IL1-beta, 25 ng/mL TNF-alpha and 50 ng/mL VEGF (with cytokines). A titration of MMAE-linked ADCs or free MMAE was added to the cells. After 24 h of treatment, cells were fixed in ice-cold 70% ethanol. Subsequently, the cells were washed with flow cytometry buffer (PBS, 1% FBS, 0.1% Triton) and stained for 1 h with a 1:100 dilution of phospho-Histone H3 (Ser10) (D2C8 PE Conjugate, Cell Signaling Technology). After 2 washes, the cells were treated for 20 min with 100 μg/mL PureLink RNAse A (ThermoFisher Scientific), followed by the addition of the viability dye TO-PRO-3 Iodide (ThermoFisher Scientific). 40,000 events were collected on a Novocyte flow cytometer. In the Flowjo data analysis software cell doublets and aneuploid cells were excluded. […]"}, "[3]": {"test_system": "thrombin generation (relipidated TF in normal pooled plasma)", "test": "Thrombin generation assay (TGA) with 10 min antibody pre-incubation", "format": "biochemical, human", "protocol": "as §1\nas §1, with “was normal pooled plasma (NPP)” for “was NPP”, “in citrate supplemented with corn trypsin inhibitor (citrate/CTI).” for “in citrate/CTI.”\nas §2"}, "[4]": {"test_system": "DSS-colitis model, C57BL/6 mice", "test": "DSS-colitis model (2.5% DSS)", "format": "in vivo, mouse", "source_text": "In a colitis model, the administration of dextran sulfate sodium (DSS) causes colitis-like pathologies due to toxicity to colonic epithelial cells, which leads to a compromised mucosal function and infiltration of neutrophils, macrophages and lymphocytes. It results in loss of epithelial barrier function, secretion of proinflammatory cytokines and chemokines, and the influx of cells with cytotoxic potential, such as neutrophils and inflammatory macrophages. It is not considered a T-cell-mediated process in the art.\nOn Day 0 of the study, 8-12 week old male C57BL/6 mice received either sterile water ad libitum (Group 1, n=5) or 2.5% (w/v) DSS dissolved into sterile water ad libitum (Groups 2-5, n=10 mice per group).\nOn Day 8, all animals received sterile water for the remainder of the experiment and were euthanized on day 10.\nThroughout the study clinical observations were made daily. Body weight was measured and recorded daily (from Day 0 to Day 10). Body condition was also evaluated visually daily using the scoring system illustrated in FIG. 2. The stool consistency was determined qualitatively and blood in stool was measured daily using a hemoccult stool bleeding test. […]\nFollowing euthanasia, the animal was measured (length determined) and weighed. Weight/length ratio was calculated for each animal. The animals were dissected and the weight of their spleens was determined. […]"}, "[5]": {"test_system": "LPS-induced acute lung injury model, BALB/c mice", "test": "LPS-induced acute lung injury model", "format": "in vivo, mouse", "settings": "end of the study; 431D8 1 mg/kg IP; dexamethasone 3 mg/kg IP", "protocol": "For this study, 48 male BALB/c mice were randomly and prospectively assigned to five groups: a group of six (n=6), a group of twelve (n=12), and three groups of ten (n=10 per group) animals each. On Day 0, animals in Groups 2-5 were dosed according to Table 63, 60 minutes prior to LPS administration. […] Animals were then released into a recovery cage until they woke up.\nAll animals were weighed and evaluated for respiratory distress daily (defined as an increase in respiratory rate and/or obvious respiratory effort). Animals with severe respiratory distress, or animals that lost greater than 20% of their total starting body weight, were euthanized within 2 hours of observation.\nAt 48 hours post-LPS challenge all animals were sacrificed with an overdose of xylazine and bronco-alveolar lavage (BAL) of the right lung only was performed (by tying off the left lung) for total and differential cell counts as well as total protein quantification and cytokine quantitation by Luminex. Lungs were then weighed (total lung weight and right lung weight). The right lung was frozen in liquid nitrogen and stored at −80° C. […] All slides were evaluated by a board-certified veterinary pathologist who used a scoring system to evaluate extent of lung injury and inflammation."}}, "note": "Square brackets hold non-standard residues; d marks the D form. Peptide text beside a SMILES is read from it. * marks the point of attachment. Dolaproine = CO[C@@H]([C@@H]1CCCN1)[C@@H](C)C(=O)O; Dil = CC[C@H](C)[C@H](NC)[C@@H](CC(=O)O)OC; X1 = C[C@@H](N*)[C@@H](O)c1ccccc1; NMeV = CN[C@H](C(=O)O)C(C)C"}
{"compound": "5G9: previously described TF-specific antibody", "values": [{"measurement": "ETP", "setting": "[1]; Ab conc. 10 nM", "value": 1176, "unit": "nM·min"}, {"measurement": "Antibody binding to TF construct", "setting": "[2]; Table 53, construct rTF", "value": "0 (less than 50%, the antibody was considered a non-binder (0))"}, {"measurement": "Antibody binding to TF construct", "setting": "[2]; Table 54, construct rTF", "value": "0 (less than 50%, the antibody was considered a non-binder (0))"}, {"measurement": "Constructs not bound by antibody", "setting": "[2]; chimeric human-rat TF constructs", "value": "rTF, h1-107_r, h108-219_r, h159-219_r, h159-189_r, h159-174_r, h167-174_r, h190-219_r"}, {"measurement": "Antibody binding to TF construct", "setting": "[2]; construct h78-107_r (21), human segment replaced by rat segment", "value": "1 (between 50% and 150%, the antibody was considered a binder (1))"}, {"measurement": "Antibody binding to TF construct", "setting": "[2]; construct h108-219_r (46), human segment replaced by rat segment", "value": "0 (less than 50%, the antibody was considered a non-binder (0))"}, {"measurement": "Antibody binding to TF construct", "setting": "[2]; construct h159-219_r (27), human segment replaced by rat segment", "value": "0 (less than 50%, the antibody was considered a non-binder (0))"}, {"measurement": "Antibody binding to TF construct", "setting": "[2]; construct r141-194_h (rat amino acid segment replaced by human segment, 20 amino acid changes)", "value": "0 (less than 50%, the antibody was considered a non-binder (0))"}, {"measurement": "Percent antibody binding to TF construct relative to hTF", "setting": "[2]; construct r141-194_h (rat amino acid segment replaced by human segment, 20 amino acid changes), 15 μg/ml antibody", "value": 32, "unit": "%"}]}
{"compound": "CC[C@H](C)[C@@H]([C@@H](CC(=O)N1CCC[C@H]1[C@H](OC)[C@@H](C)C(=O)N[C@H](C)[C@@H](O)c1ccccc1)OC)N(C)C(=O)[C@@H](NC(=O)[C@@H](NC)C(C)C)C(C)C", "note": "[MMAE, monomethyl auristatin E] (H-[NMeV]V[Dil][Dolaproine]-X1)", "values": [{"measurement": "phosphorylation of histone H3", "setting": "HUVECs", "value": "increase the phosphorylation of histone H3 to a similar extent in both HCT-116 cells and HUVECs"}]}
{"compound": "10H10: previously described TF-specific antibody [reference compound]", "values": [{"measurement": "ETP", "setting": "[1]; Ab conc. 10 nM", "value": 2036, "unit": "nM·min"}, {"measurement": "ETP", "setting": "[1]; Ab conc. 50 nM", "value": 1978, "unit": "nM·min"}, {"measurement": "ETP", "setting": "[1]; Ab conc. 100 nM", "value": 1945, "unit": "nM·min"}, {"measurement": "ETP", "setting": "[3]; Ab conc. 10 nM", "value": 1807, "unit": "nM·min"}, {"measurement": "ETP", "setting": "[3]; Ab conc. 50 nM", "value": 1754, "unit": "nM·min"}, {"measurement": "ETP", "setting": "[3]; Ab conc. 100 nM", "value": 1795, "unit": "nM·min"}]}
{"compound": "Cyclosporine [CsA, reference compound]", "values": [{"measurement": "body condition score", "setting": "[4]; after Day 7", "value": "most significant deterioration in body condition"}, {"measurement": "weight loss relative to baseline", "setting": "[4]; by Day 4, CsA 80 mg/kg once daily oral gavage", "value": "~20", "unit": "%"}]}
{"compound": "Dexamethasone [reference compound]", "values": [{"measurement": "weight loss relative to baseline", "setting": "[5]", "value": "about 2%"}]}
